Measurements from patent US11236120B2, “Azithromycin derivatives with epithelial barrier enhancement properties” (EpiEndo Pharmaceuticals ehf, priority 2015, dated 2022).
In brackets after ≈: the same amount, converted by molar mass.

What was measured:
[1] = test system: Streptococcus pneumoniae (ATCC49619); test: Assay 1: antimicrobial broth dilution on microtiter plates, Streptococcus pneumoniae; format: cell-based; conditions: Str
Description: (§1) The antimicrobial activity of each Example compound was investigated. The Minimal Inhibitory Concentration (MIC—the minimal dose required to inhibit bacterial growth) and the Minimal Bactericidal Concentration (MBC—the minimal dose required to kill bacteria) were measured for each compound for Streptococcus pneumoniae (ATCC49619), Staphylococcus aureus (ATCC29213), Bacillus megaterium (BM-11) and Escherichia coli (D-21) using an antimicrobial broth dilution method on microtiter plates. The Minimal Inhibitory Concentration (MIC) was also measured for each example compound and azithromycin with Mycobacterium avium complex (MAC). […]
(§2) The Minimal Inhibitory Concentration (MIC—the minimal dose required to inhibit bacterial growth) and the Minimal Bactericidal Concentration (MBC—the minimal dose required to kill bacteria) were measured for each compound for Streptococcus pneumoniae (ATCC49619), Staphylococcus aureus (ATCC29213), Bacillus megaterium (BM-11) and Escherichia coli (D-21) using an antimicrobial broth dilution method on 96 well microtiter plates. […]
(§3) After addition of the bacterial solution, the plates were incubated at 35° C. for 18 h. The bacterial growth of each well was then recorded and then the Minimal Inhibitory Concentration (MIC) and Minimal Bactericidal Concentration ([…]) were determined.

[2] = test system: Staphylococcus aureus (ATCC29213); test: Assay 1: antimicrobial broth dilution on microtiter plates, Staphylococcus aureus; format: cell-based; conditions: S. aureus (ATCC29213)
Description: as §1, §2, §3

Escherichia coli (D-21) = test: Assay 1: antimicrobial broth dilution on microtiter plates, Escherichia coli; format: cell-based; conditions: E. coli (D-21)
Description: The antimicrobial activity of each Example compound was investigated. The Minimal Inhibitory Concentration (MIC—the minimal dose required to inhibit bacterial growth) and the Minimal Bactericidal Concentration (MBC—the minimal dose required to kill bacteria) were measured for each compound for Streptococcus pneumoniae (ATCC49619), Staphylococcus aureus (ATCC29213), Bacillus megaterium (BM-11) and Escherichia coli (D-21) using an antimicrobial broth dilution method on microtiter plates. The Minimal Inhibitory Concentration (MIC) was also measured for each example compound and azithromycin with Mycobacterium avium complex (MAC). Mycobacterium avium complex (MAC) is a term that covers both M. avium and M. intracellulare.
The antibacterial activities of example compounds 1 to 31 and azithromycin were investigated. The Minimal Inhibitory Concentration (MIC—the minimal dose required to inhibit bacterial growth) and the Minimal Bactericidal Concentration (MBC—the minimal dose required to kill bacteria) were measured for each compound for Streptococcus pneumoniae (ATCC49619), Staphylococcus aureus (ATCC29213), Bacillus megaterium (BM-11) and Escherichia coli (D-21) using an antimicrobial broth dilution method on 96 well microtiter plates.
A 256 μg/ml stock solution of each compound was prepared in Mueller-Hinton Broth and then further diluted by a 2-fold serial dilution. […]

Mycobacterium avium = test: Assay 2: STC colorimetric microplate assay, M. avium; format: cell-based
[3] = test system: Mycobacterium intracellulare; test: Assay 2: STC colorimetric microplate assay, M. intracellulare; format: cell-based
[4] = Solubility in 10 mM phosphate buffer (pH 7.4); format: physicochemical; conditions: pH 7.4, aqueous buffer, kinetic from dmso stock, 60 minutes at room temperature, filtered, read-out: MTS Solubility in Buffer (pH 7.4)
Description: Solubility in 10 mM Phosphate Buffer (pH 7.4)
The solubility sample testing of the compounds was performed by in phosphate buffer at pH 7.4 and using HPLC-MS detection. A stock solution of […] in DMSO was prepared for each compound. For the solubility test sample, 100 μL of the stock solution was diluted with 3.9 mL of a 10 mM phosphate buffer at […] to a final concentration of […]. The buffer solution was left to stand for 60 minutes at room temperature and then filtered. The filtrate was analyzed against two calibration points of the same analyte prepared at […] using HPLC-MS. These calibration points were prepared from the same stock solution as the solubility sample by diluting it with DMSO:H2O (1:1) 1:40 and then again 1:10. The chromatographic signal area of the analyte in the solubility sample was then compared to the chromatographic signal area of the two calibration samples.
The chromatographic separation was performed on a Waters HPLC-MS system using a 50×2.1 mm×Bridge C18 column and a gradient elution of Water with 0.1% formic acid and acetonitrile with 0.1% formic acid. The analytes were analyzed in positive electro-spray mode using the (M+H)^+ in single ion recording.

patients with COPD = conditions: double blinded clinical trials; cited from earlier work
[5] = test system: epithelial cells in vitro ALI culture; conditions: cited from earlier work

Question: Which results are given for `CC[C@H]1OC(=O)[C@H](C)[C@@H](O[C@H]2C[C@@](C)(OC)[C@@H](O)[C@H](C)O2)[C@H](C)[C@@H](O[C@@H]2O[C@H](C)C[C@H](N(C)C)[C@H]2O)[C@](C)(O)C[C@@H](C)CN(C)[C@H](C)[C@@H](O)[C@]1(C)O` [Azithromycin, (2R,3S,4R,5R,8R,10R,11R,12S,13S,14R)-11-[(2S,3R,4S,6R)-4-(dimethylamino)-3-hydroxy-6-methyl-tetrahydropyran-2-yl]oxy-2-ethyl-3,4,10-trihydroxy-13-[(2R,4R,5S,6S)-5-hydroxy-4-methoxy-4,6-dimethyl-tetrahydropyran-2-yl]oxy-3,5,6,8,10,12,14-heptamethyl-1-oxa-6-azacyclopentadecan-15-one]?
Answer: MBC [1]: 0.06 mg/L (≈ 0.0801 µM); MIC [1]: 0.06 mg/L (≈ 0.0801 µM); MBC [2]: 8 mg/L (≈ 10.7 µM); MIC [2]: 2 mg/L (≈ 2.67 µM); MBC (Escherichia coli (D-21)): 32 mg/L (≈ 42.7 µM); MIC (Escherichia coli (D-21)): 4 mg/L (≈ 5.34 µM); MIC (Mycobacterium avium; Mycobacterium avium S1002170205): 16 mg/L (≈ 21.4 µM); MIC (Mycobacterium avium; Mycobacterium avium S1003050114): 32 mg/L (≈ 42.7 µM); MIC ([3]; Mycobacterium intracellulare S1005200118): 32 mg/L (≈ 42.7 µM); MIC ([3]; Mycobacterium intracellulare S1305150028): 4 mg/L (≈ 5.34 µM); solubility at 60 min [4]: 0.26 µM (≈ 0.195 µg/mL); reduction of the hospitalisation rate and disease related exacerbations (patients with COPD): 30%; effect on transepithelial resistance (TER) and cellular processing of tight junctions [5]: increasing transepithelial resistance
